# US11998606B2, “Compounds and methods for selective proteolysis of glucocorticoid receptors” (Board of Regents, The University of Texas System, priority 2018, dated 2024)
# Where “and” joins values, the source holds several entries; their conditions need not be identical. Equal values may be shown once. Read-outs that look alike come from different tables or passages of the source.
# Key:
# [1] = tested on: TRAMP-C1 prostate cancer cells; assay: In vivo anti-tumor efficacy, TRAMP-C1 tumors in immunocompetent mice; design: species or system male C57/Bl6 mice; conditions: C57/Bl6 mice, Example 3 100 mg/kg + anti-PD1 antibody 200 μg IP once daily, 7 days
# Protocol: TRAMP-C1 cells (5×10^6) were injected into the flanks of male C57/Bl6 mice. Tumor take was monitored visually and by palpation bi-weekly. Once tumors reached 200 mm^3 mice were randomized into control and different treatment groups for 7 days. Treatment cohorts are as follows: • a. Vehicle is 5% Cremophor: 5% Ethanol in saline, (n=10 animals) • b. GR degrader Example #3 (100 mg/kg) IP once daily in 5% Cremophor: 5% Ethanol in saline (n=10 animals) • c. Anti-PD1 antibody, clone RMP1-14 (200 μg) IP once daily in 5% Cremophor: 5% Ethanol in saline (n=10 animals) • d. GR degrader Example #3 (100 mg/kg)+Anti-PD1 antibody (200 μg) IP once daily in 5% Cremophor: 5% Ethanol in saline (n=10 animals)
# Tumor diameter and volume were calculated based on caliper measurements of tumor length and […] using the formula tumor volume=(length×width^2)/2. Tumor volume and body weight were measured three times.
# DU145 cells = assay: DU145 cell line proliferation assay (Incucyte confluency); format: cell-based; conditions: 1 μM, 3.3 μM or 10 μM, 5 days, versus DMSO control
# Protocol: DU145 cells are routinely maintained in RPMI 1640 media. Proliferation is determined using a real time cell imaging device, Incucyte. Cells are initially seeded at density of 2000 cells per well in 96-well plates. 24 hours post-seeding, cells are treated with DMSO control or GR degraders at 1 μM, 3.3 μM or 10 μM concentration. Cells are allowed to grow under regular growth conditions for 5 days while being monitored and imaged every four hours by Incucyte. Confluency of cells, a surrogate for proliferation, is calculated and plotted.
# [2] = tested on: VCaP prostate cancer cells; assay: In vivo anti-tumor efficacy, VCaP castration resistant prostate cancer xenograft model; design: species or system Male CB17 SCID Mice; conditions: castrated CB17 SCID mice, Example 3 100 mg/kg + enzalutamide 10 mg/kg IP once daily
# Protocol: 1×10^7 VCaP cells were injected into the flanks of male CB17 SCID Mice. Tumor take was monitored visually and by palpation bi-weekly. Once tumors reached 200 mm^3 mice were castrated. Once tumors stopped shrinking, mice were randomized into control and different treatment groups for 26 days. Treatment cohorts are as follows: • a. Vehicle is 5% Cremophor: 5% Ethanol in saline, (n=10 animals) • b. GR degrader example #3 (100 mg/kg) IP once daily in 5% Cremophor: 5% Ethanol in saline (n=10 animals) • c. Enzalutamide (10 mg/kg) IP once daily in 5% Cremophor: 5% Ethanol in saline (n=10 animals) • d. GR degrader example #3 (100 mg/kg)+Enzalutamide (10 mg/kg) IP once daily in 5% Cremophor: 5% Ethanol in saline (n=10 animals)
# Tumor diameter and volume were calculated based on caliper measurements of tumor length and […] using the formula tumor volume=(length×width^2)/2. Tumor volume and body weight were measured three times a week.
# [3] = Single dose intraperitoneal pharmacokinetics in CD-1 mice, plasma concentration by HPLC-MS; format: in vivo; conditions: 10 mg/kg IP
# [4] = as above; format: in vivo
# Protocol: The intraperitoneal bioavailability was determined in the following study: three CD-1 female mice were dosed by intraperitoneal injection (10 mg/kg) and plasma collected at the following hourly time points (0.083, 0.25, 0.5, 1, 2, […] and 24h). Plasma concentration was determined by HPLC-MS.
# Table 1 illustrates pharmacokinetic properties of the Example 3 compound in CD-1 mice (n=3) after a single intraperitoneal dose of 10 mg/kg.
# PC3 cells = assay: PC3 cell line clonogenic (colony formation) assay; format: cell-based; conditions: 3.3 μM or 10 μM, 10-14 days, versus DMSO control
# Protocol: PC3 cells are routinely maintained in RPMI 1640 media. Cell growth is determined using crystal violet staining. Cells are initially seeded at density of 1000 to 2000 cells per well in 6-well plates. 24 hours post-seeding, cells are treated with DMSO control, enzalutamide, RU-486 or various GR degraders at 3.3 μM or 10 μM concentration. Cells are allowed to grow under regular growth conditions for 10-14 days. Cells are then fixed with 80% MeOH and stained with crystal violet solution (0.05%) overnight. Plates are then washed in water, dried and scanned.
# [5] = female, mouse, ip, CD-1 mice (n=3), single intraperitoneal dose of 10 mg/kg
structure (smiles),measurement,setting,value
"CC#C[C@]1(O)CC[C@H]2[C@@H]3CCC4=CC(=O)CCC4=C3[C@@H](c3ccc(N(C)CCCC(=O)N4CCN(C(=O)OC(C)(C)C)CC4C(=O)N4CCN(C(=O)OC(C)(C)C)CC4C(=O)NCCCOCCOCCOCCCNc4cccc5c4C(=O)N(C4CCC(=O)NC4=O)C5=O)cc3)C[C@@]21C (stereo partly drawn) [Example 3, tert-Butyl-4-(4-(tert-butoxycarbonyl)-1-(4-((4-((8S,11R,13S,14S,17S)-17-hydroxy-13-methyl-3-oxo-17-(prop-1-yn-1-yl)-2,3,6,7,8,11,12,13,14,15,16,17-dodecahydro-1H-cyclopenta[a]phenanthren-11-yl)phenyl)(methyl)amino)butanoyl)piperazine-2-carbonyl)-3-((3-(2-(2-(3-((2-(2,6-dioxopiperidin-3-yl)-1,3-dioxoisoindolin-4-yl)amino)-propoxy)ethoxy)ethoxy)propyl)carbamoyl)piperazine-1-carboxylate]","Tumor growth, combination with anti-PD1 antibody",[1],synergizes with anti-PD1 antibody to inhibit growth of prostate cancer
same,Proliferation (confluency),DU145 cells,displays efficacy against DU145 cancer cells
same,"Xenograft tumor growth, combination with enzalutamide",[2],synergizes with enzalutamide to inhibit growth of prostate cancer
same,concentration at 8 h,"[3]; 4 hr, individual animals, read-out: Individual concentration",3220 nM and 3210 nM
same,concentration at 8 h,"[3]; 8 hr, individual animals, read-out: Individual concentration",2980 nM and 2610 nM
same,concentration at 8 h,"[3]; female, CD-1, mouse, ip, 10 mg/kg, 8 hr, individual animals, read-out: Individual concentration",2900 nM
same,concentration at 8 h,"[3]; female, CD-1, mouse, ip, 10 mg/kg, 8 hr, n=3, read-out: Mean concentration",2830 nM
same,concentration at 0.5 h,"[4]; 0.083 hr, 10 mg/kg IP, CD-1 mice, individual animals, 10 mg/kg, read-out: Individual concentration",72.2 nM and 135 nM
same,concentration at 0.5 h,"[4]; 0.25 hr, 10 mg/kg IP, CD-1 mice, individual animals, 10 mg/kg, read-out: Individual concentration",283 nM and 93 nM and 173 nM
same,concentration at 0.5 h,"[4]; 0.5 hr, 10 mg/kg IP, CD-1 mice, individual animals, 10 mg/kg, read-out: Individual concentration",652 nM and 939 nM
same,concentration at 0.5 h,"[4]; 1 hr, 10 mg/kg IP, CD-1 mice, individual animals, 10 mg/kg, read-out: Individual concentration",1010 nM and 147 nM and 358 nM
same,concentration at 0.5 h,"[4]; 2 hr, 10 mg/kg IP, CD-1 mice, individual animals, 10 mg/kg, read-out: Individual concentration",1480 nM and 2870 nM
same,concentration at 0.5 h,"[4]; 24 hr, 10 mg/kg IP, CD-1 mice, individual animals, 10 mg/kg, read-out: Individual concentration",505 nM and 617 nM
same,concentration at 0.083 h,"[4]; female, CD-1, mouse, ip, 10 mg/kg, 0.083 hr, 10 mg/kg IP, CD-1 mice, individual animals, read-out: Individual concentration",114 nM
same,concentration at 0.083 h,"[4]; female, CD-1, mouse, ip, 10 mg/kg, 0.083 hr, 10 mg/kg IP, CD-1 mice, n=3, read-out: Mean concentration",107 nM
same,concentration at 0.25 h,"[4]; female, CD-1, mouse, ip, 10 mg/kg, 0.25 hr, 10 mg/kg IP, CD-1 mice, n=3",183 nM
same,concentration at 0.5 h,"[4]; female, CD-1, mouse, ip, 10 mg/kg, 0.5 hr, 10 mg/kg IP, CD-1 mice, individual animals, read-out: Individual concentration",727 nM
same,concentration at 0.5 h,"[4]; female, CD-1, mouse, ip, 10 mg/kg, 0.5 hr, 10 mg/kg IP, CD-1 mice, n=3, read-out: Mean concentration",773 nM
same,concentration at 1 h,"[4]; female, CD-1, mouse, ip, 10 mg/kg, 1 hr, 10 mg/kg IP, CD-1 mice, n=3",505 nM
same,concentration at 2 h,"[4]; female, CD-1, mouse, ip, 10 mg/kg, 2 hr, 10 mg/kg IP, CD-1 mice, individual animals, read-out: Individual concentration",2240 nM
same,concentration at 2 h,"[4]; female, CD-1, mouse, ip, 10 mg/kg, 2 hr, 10 mg/kg IP, CD-1 mice, n=3, read-out: Mean concentration",2200 nM
same,concentration at 4 h,"[4]; female, CD-1, mouse, ip, 10 mg/kg, 10 mg/kg IP, CD-1 mice, individual animals, read-out: Individual concentration",3300 nM
same,concentration at 4 h,"[4]; female, CD-1, mouse, ip, 10 mg/kg, 10 mg/kg IP, CD-1 mice, n=3, read-out: Mean concentration",3240 nM
same,concentration at 24 h,"[4]; female, CD-1, mouse, ip, 10 mg/kg, 24 hr, 10 mg/kg IP, CD-1 mice, individual animals, read-out: Individual concentration",440 nM
same,concentration at 24 h,"[4]; female, CD-1, mouse, ip, 10 mg/kg, 24 hr, 10 mg/kg IP, CD-1 mice, n=3, read-out: Mean concentration",521 nM
same,AUC(0-t),[4]; [5],46.2 µM·h
same,Cmax,[4]; [5],3240 nM
same,Tmax,[4]; [5],4 h
same,Colony formation (crystal violet staining),PC3 cells,inhibited colony formation
"CNC(=O)c1ccc(N2C(=S)N(c3ccc(C#N)c(C(F)(F)F)c3)C(=O)C2(C)C)cc1F [enzalutamide, reference compound]",Proliferation (confluency),DU145 cells,did not differ significantly from control
same,Colony formation (crystal violet staining),PC3 cells,did not differ significantly from control
